Patent US12121521B2, “Uses of salt-inducible kinase (SIK) inhibitors for treating osteoporosis” (The General Hospital Corporation, priority 2016, dated 2024)

Tests used:
Ocy454 cells [1] = assay: Immunoblotting of Ocy454 cell lysates (HDAC4/5, CRTC2, SIK2 phosphorylation and localisation); type: cell-based, mouse
Ocy454 cells [2] = assay: Gene expression in Ocy454 cells by RT-qPCR; type: cell-based, mouse
Ocy454 cells [3] = assay: Gene expression in Ocy454 cells by RT-qPCR; type: cell-based, mouse; details: 0.5 μM, 3.5 hours; FIG. 21
Procedure: In FIG. 21, Ocy454 cells (osteocyte cell line, also known at 6-9 cells) were cultured at 37° C. for 2 weeks to permit osteocyte differentiation. The cells were then treated with the indicated compound (0.5 μM) for 3.5 hours, and gene expression was analyzed by RT-qPCR. SOST expression was reduced by the indicated compounds. RANKL expression was increased by the indicated compounds. […] Therefore, these changes in gene expression may be due to on-target effects of the indicated compound.
For all experiments, a single cell subclone of Ocy454 cells (17, 18) was used. Cells were passages in alpha-MEM supplemented with 10% heat-inactivated fetal bovine serum and 1% antibiotics (penicillin/streptomycin, Fungizone) at 33° C. with 5% CO2. Cells were plated at 50,000 cells/ml and allowed to reach confluency at 33° C. (typically in 2-3 days). At this point, cells were transferred to 37° C. for subsequent analysis. For immunoblotting, cells were always analyzed after culture at 37° C. for 7 days. For gene expression analysis, cells were analyzed after culture at 37° C. for 14 days. Mycoplasma contamination was ruled out by PCR. Cells were routinely assayed for SOST expression at 37° C. and examined for osteocytic morphology.
Total RNA was extracted from cultured cells using RNeasy (Qiagen, Venlo, Netherlands) following the manufacturer's instructions. For long bone RNA isolation, mice were sacrificed and both femurs were rapidly dissected on ice. Soft tissue was removed and epiphyses cut. Bone marrow cells were then removed by serial flushing with ice-cold PBS. TRIzol (Life Technologies) was added and sampled were frozen at −80C and then homogenized. RNA was then extracted per the manufacturer's instructions, and further purified on RNeasy microcolumns prior to cDNA synthesis. RNA with A260/280 ratio <1.7 was not used for downstream analysis. For cDNA synthesis, 1 μg RNA was used in synthesis reactions according to the instructions of the manufacturer (Primescript RT, Takara). SYBR Green-based qPCR detection was performed using FastStart Universal SYBR Green (Roche, Basel, Switzerland) on a StepOne Plus (Applied Biosystems, Carlsbad, CA) thermocycler.

male mice = assay: Acute YKL-05-099 administration: bone gene expression; type: in vivo, mouse; details: single I.P. dose 20 μmol/kg, 2 hours
Procedure: Whole cell extracts were generated, followed by immunoblotting. […] RNA was prepared, and gene expression analyzed by RT-qPCR. […] 2 hours later, animals were sacrificed, RNA was prepared from femurs, and gene expression analyzed by RT-qPCR. […] Animals were sacrificed 2 hours after the final dose, and RNA from femurs analyzed for the indicated genes. BGLAP encodes osteocalcin. * indicated p<0.01 versus vehicle, # indicates p<0.05 versus vehicle. (FIGS. 8E to 8K), static and dynamic histomorphometry were performed on the tibia from the same mice as in FIG. 8D. Each data point represents an individual mouse, p values for each difference are shown on the graph. (FIG. 8L) Representative photomicrograph showing increased osteoblasts on cancellous bone surfaces from YKL-05-099-treated mice.
All animals were housed in the Center for Comparative Medicine at the Massachusetts General Hospital, and all experiments were approved by the hospital's Subcommittee on Research Animal Care. HDAC5-null mice (70) and HDAC4 f/f mice (71) were generously provided by Dr. Eric Olson (University of Texas Southwestern Medical Center, Dallas, TX) and were backcrossed to C57B/6 mice for at least 6 generations. […] In all instances, skeletal phenotypes were evaluated in 8 week-old sex-matched littermates. […]

tyrosine kinase Src = tyrosine kinase Src (Homo sapiens, UniProt P12931); details: cited from earlier work
tyrosine kinase Src, sequence (P12931 whole entry): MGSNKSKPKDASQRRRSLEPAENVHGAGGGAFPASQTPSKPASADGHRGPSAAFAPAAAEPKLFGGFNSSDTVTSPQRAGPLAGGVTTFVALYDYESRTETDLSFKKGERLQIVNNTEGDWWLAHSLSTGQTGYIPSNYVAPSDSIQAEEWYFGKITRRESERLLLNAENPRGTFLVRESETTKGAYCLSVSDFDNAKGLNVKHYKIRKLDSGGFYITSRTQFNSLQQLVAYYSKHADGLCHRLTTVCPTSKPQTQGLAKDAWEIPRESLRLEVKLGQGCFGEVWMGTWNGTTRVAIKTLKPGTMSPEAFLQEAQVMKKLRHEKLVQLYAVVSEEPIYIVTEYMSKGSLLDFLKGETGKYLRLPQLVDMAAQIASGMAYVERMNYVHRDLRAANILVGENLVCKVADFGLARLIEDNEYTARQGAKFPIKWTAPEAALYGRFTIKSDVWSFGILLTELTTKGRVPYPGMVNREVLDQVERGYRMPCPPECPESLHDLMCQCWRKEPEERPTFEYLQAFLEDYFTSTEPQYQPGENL

[4] = control vs SIK2/3 deficient cells, 0.5 μM, 4 hours
[5] = 1 μM, 4 hours, control vs shSIK2/3 cells, FIG. 8B

Row | SMILES | SIK2 S358 phosphorylation (Ocy454 cells [1]; control and Gsα-deficient Ocy454 cells, 10 μM, 30 minutes) | HDAC4 S246 phosphorylation (Ocy454 cells [1]; osteocytes lacking SIK2 and SIK3, 10 μM for 45 minutes) | RANKL expression (Ocy454 cells [2]; FIG. 5E) | SOST expression (Ocy454 cells [2]; FIG. 5E) | RANKL expression (Ocy454 cells [2]; Gsα-deficient Ocy454, 0.5 μM) | SOST expression (Ocy454 cells [2]; Gsα-deficient Ocy454, 0.5 μM) | stimulation of RANKL expression (Ocy454 cells [2]; cells lacking CRTC2, PTH 1 nM or YKL-05-093 0.5 μM, 4 hours) | genes measured with SIK2/3-dependent regulation (Ocy454 cells [2]; [4]) | genes measured with regulation independent of the presence of SIK2/3 (Ocy454 cells [2]; [4]) | SOST expression (Ocy454 cells [2]; osteocytes lacking SIK2 and SIK3, 0.5 μM, 4 hours) | RANKL expression (Ocy454 cells [3]) | SOST expression (Ocy454 cells [3]) | RANKL in bone RNA (male mice) | SOST in bone RNA (male mice) | HDAC4 S246 phosphorylation (Ocy454 cells [1]; indicated doses, 20 minutes, FIG. 8A) | inhibition of the tyrosine kinase Src (tyrosine kinase Src) | RANKL expression (Ocy454 cells [2]; [5]) | SOST expression (Ocy454 cells [2]; [5])
1 | COc1ccc(N2C(=O)N(c3c(C)cccc3C)Cc3cnc(Nc4ccc(C5CCN(C)CC5)c(OC)c4)nc32)c(OC)c1 [YKL-05-093] | did not increase SIK2 S358 phosphorylation | did not decrease HDAC4 S246 phosphorylation | RANKL up-regulation | rapid and potent SOST suppression | RANKL up-regulation with effects similar to forskolin | SOST suppression | abrogated | 13/19 | 6/19 | did not decrease HDAC4 S246 phosphorylation or cause SOST suppression | most active in these experiments at reducing SOST and increasing RANKL | most active in these experiments at reducing SOST | – | – | – | – | – | –
2 | COc1ccc(N2C(=O)N(c3c(C)cccc3Cl)Cc3cnc(Nc4ccc(C5CCN(C)CC5)cc4OC)nc32)nc1 [YKL-05-099] | – | – | – | – | – | – | – | – | – | – | – | – | RANKL up-regulation | SOST down-regulation | dose-dependent reduction in HDAC4 S246 phosphorylation | known to inhibit the tyrosine kinase Src | RANKL up-regulation in a SIK2/3-dependent manner | SOST down-regulation
